In ChEMBL document CHEMBL1201861, “Genomics of Drug Sensitity in Cancer screening data, Wellcome Trust Sanger Institute”:
pIC50: −log10 of the molar value.

Columns and labels:
[1] = tested on: SW982; assay: cells; type: functional, cell-based; conditions: Homo sapiens;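 note: growth inhibition of SW982 cells, read out with a cell viability assay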
Description: SANGER: Inhibition of human SW982 cell growth in a cell viability assay.

[2] = tested on: EM-2; assay: cells; type: functional, cell-based; conditions: Homo sapiens;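 note: growth inhibition of EM-2 cells, read out with a cell viability assay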
Description: SANGER: Inhibition of human EM-2 cell growth in a cell viability assay.

[3] = tested on: RXF 393; assay: cells; type: functional, cell-based; conditions: Homo sapiens;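 note: growth inhibition of human RXF 393 cells, read out with a cell viability assay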
Description: SANGER: Inhibition of human RXF393 cell growth in a cell viability assay.

[4] = tested on: DoTc2-4510; assay: cells; type: functional, cell-based; conditions: Homo sapiens
[5] = tested on: ACN; assay: cells; type: functional, cell-based; conditions: Homo sapiens;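 note: growth inhibition of the human ACN cell line, read out via cell viability testing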
Description: SANGER: Inhibition of human ACN cell growth in a cell viability assay.

[6] = tested on: BB65-RCC; assay: cells; type: functional, cell-based; conditions: Homo sapiens;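 note: growth inhibition of the cell line, measured with a cell viability assay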
Description: SANGER: Inhibition of human BB65-RCC cell growth in a cell viability assay.

[7] = tested on: BCPAP; assay: cells; type: functional, cell-based; conditions: Homo sapiens;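 note: growth inhibition of BCPAP cells, read out in a cell viability assay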
Description: SANGER: Inhibition of human BCPAP cell growth in a cell viability assay.

[8] = tested on: A-431; assay: cells; type: functional, cell-based; conditions: Homo sapiens;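 note: growth inhibition of A-431 cells, determined with a cell viability read-out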
Description: SANGER: Inhibition of human A431 cell growth in a cell viability assay.

[9] = tested on: LB2241-RCC; assay: cells; type: functional, cell-based; conditions: Homo sapiens;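 note: cell viability assay measuring how strongly the cultured human renal carcinoma line is prevented from growing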
Description: SANGER: Inhibition of human LB2241-RCC cell growth in a cell viability assay.

[10] = tested on: MV4-11; assay: cells; type: functional, cell-based, MV-4-11; conditions: Homo sapiens;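 note: cell viability readout measuring growth inhibition of human MV-4-11 cells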
Description: SANGER: Inhibition of human MV-4-11 cell growth in a cell viability assay.

[11] = tested on: MOLT-4; assay: cells; type: functional, cell-based; conditions: Homo sapiens;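 note: growth inhibition of MOLT-4 cells, determined with a cell viability readout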
Description: SANGER: Inhibition of human MOLT-4 cell growth in a cell viability assay.

[12] = tested on: NCI-H2126; assay: cells; type: functional, cell-based; conditions: Homo sapiens;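 note: growth inhibition of the cancer cell line, determined with a cell viability readout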
Description: SANGER: Inhibition of human NCI-H2126 cell growth in a cell viability assay.

[13] = tested on: GT3TKB; assay: cells; type: functional, cell-based; conditions: Homo sapiens;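 note: growth inhibition of the cell line, read out with a cell viability assay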
Description: SANGER: Inhibition of human GT3TKB cell growth in a cell viability assay.

[14] = tested on: Becker; assay: cells; type: functional, cell-based; conditions: Homo sapiens;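 note: growth inhibition of Becker cells, read out with a cell viability assay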
Description: SANGER: Inhibition of human Becker cell growth in a cell viability assay.

[15] = tested on: MZ2-MEL; assay: cells; type: functional, cell-based; conditions: Homo sapiens;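 note: growth inhibition of MZ2-MEL cells read out with a cell viability assay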
Description: SANGER: Inhibition of human MZ2-MEL cell growth in a cell viability assay.

[16] = tested on: SK-LMS-1; assay: cells; type: functional, cell-based; conditions: Homo sapiens;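 note: growth inhibition of human SK-LMS-1 cells, read out with a cell viability assay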
Description: SANGER: Inhibition of human SK-LMS-1 cell growth in a cell viability assay.

[17] = tested on: EW-18; assay: cells; type: functional, cell-based; conditions: Homo sapiens;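 note: growth inhibition of EW-18 cells, read out by a cell viability assay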
Description: SANGER: Inhibition of human EW-18 cell growth in a cell viability assay.

[18] = tested on: NKM-1; assay: cells; type: functional, cell-based; conditions: Homo sapiens;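 note: growth inhibition of NKM-1 cells, read out with a cell viability assay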
Description: SANGER: Inhibition of human NKM-1 cell growth in a cell viability assay.

[19] = tested on: MFH-ino; assay: cells; type: functional, cell-based; conditions: Homo sapiens;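 note: growth inhibition of human MFH-ino cells, read out by a cell viability assay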
Description: SANGER: Inhibition of human MFH-ino cell growth in a cell viability assay.

[20] = tested on: LS-123; assay: cells; type: functional, cell-based; conditions: Homo sapiens
Description: SANGER: Inhibition of human LS-123 cell growth in a cell viability assay.

[21] = tested on: DEL; assay: cells; type: functional, cell-based; conditions: Homo sapiens;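 note: growth inhibition of the human DEL cell line, read out with a cell viability assay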
Description: SANGER: Inhibition of human DEL cell growth in a cell viability assay.

[22] = tested on: KY821; assay: cells; type: functional, cell-based; conditions: Homo sapiens;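 note: growth inhibition of human KY821 cells, read out by a cell viability assay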
Description: SANGER: Inhibition of human KY821 cell growth in a cell viability assay.

[23] = tested on: A204; assay: cells; type: functional, cell-based; conditions: Homo sapiens;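 note: growth inhibition of human A204 cells, read out with a cell viability assay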
Description: SANGER: Inhibition of human A204 cell growth in a cell viability assay.

[24] = tested on: U-266; assay: cells; type: functional, cell-based; conditions: Homo sapiens
Description: SANGER: Inhibition of human U-266 cell growth in a cell viability assay.

[25] = tested on: CW-2; assay: cells; type: functional, cell-based; conditions: Homo sapiens;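 note: growth inhibition of CW-2 cells, read out by a cell viability assay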
Description: SANGER: Inhibition of human CW-2 cell growth in a cell viability assay.

[26] = tested on: LS-411N; assay: cells; type: functional, cell-based; conditions: Homo sapiens
[27] = tested on: IST-SL1; assay: cells; type: functional, cell-based; conditions: Homo sapiens;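 note: growth inhibition of human IST-SL1 cells, read out with a cell viability assay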
Description: SANGER: Inhibition of human IST-SL1 cell growth in a cell viability assay.

[28] = tested on: NB69; assay: cells; type: functional, cell-based; conditions: Homo sapiens;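 note: growth inhibition of NB69 cells, determined by a cell viability assay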
Description: SANGER: Inhibition of human NB69 cell growth in a cell viability assay.

[29] = tested on: NCI-H720; assay: cells; type: functional, cell-based; conditions: Homo sapiens;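 note: growth inhibition of human NCI-H720 cells determined by a cell viability assay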
Description: SANGER: Inhibition of human NCI-H720 cell growth in a cell viability assay.

[30] = tested on: NCI-H1395; assay: cells; type: functional, cell-based; conditions: Homo sapiens;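 note: cell viability assay read-out quantifying reduced proliferation of human NCI-H1395 cells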
Description: SANGER: Inhibition of human NCI-H1395 cell growth in a cell viability assay.

[31] = tested on: LU-165; assay: cells; type: functional, cell-based; conditions: Homo sapiens
Description: SANGER: Inhibition of human LU-165 cell growth in a cell viability assay.

[32] = tested on: VA-ES-BJ; assay: cells; type: functional, cell-based; conditions: Homo sapiens;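 note: growth inhibition of the VA-ES-BJ cell line, read out by a cell viability assay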
Description: SANGER: Inhibition of human VA-ES-BJ cell growth in a cell viability assay.

[33] = tested on: IM-9; assay: SANGER: Inhibition of human IM-9 cell growth in a cell viability assay.; type: functional, cell-based
[34] = tested on: KM12; assay: cells; type: functional, cell-based; conditions: Homo sapiens;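 note: KM12 cell growth inhibition, read out with a cell viability assay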
Description: SANGER: Inhibition of human KM12 cell growth in a cell viability assay.

[35] = tested on: RPMI-2650; assay: cells; type: functional, cell-based; conditions: Homo sapiens
Description: SANGER: Inhibition of human RPMI-2650 cell growth in a cell viability assay.

[36] = tested on: LB831-BLC; assay: cells; type: functional, cell-based; conditions: Homo sapiens;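 note: growth inhibition of LB831-BLC cells, read out with a cell viability assay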
Description: SANGER: Inhibition of human LB831-BLC cell growth in a cell viability assay.

[37] = tested on: IGROV-1; assay: cells; type: functional, cell-based; conditions: Homo sapiens;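 note: reduction of IGROV-1 cell growth, read out with a viability assay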
Description: SANGER: Inhibition of human IGROV-1 cell growth in a cell viability assay.

[38] = tested on: LU-134-A; assay: cells; type: functional, cell-based; conditions: Homo sapiens
Description: SANGER: Inhibition of human LU-134-A cell growth in a cell viability assay.

[39] = tested on: CP66-MEL; assay: cells; type: functional, cell-based; conditions: Homo sapiens;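 note: growth inhibition of CP66-MEL cells determined in a cell viability assay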
Description: SANGER: Inhibition of human CP66-MEL cell growth in a cell viability assay.

[40] = tested on: A4-Fuk; assay: cells; type: functional, cell-based; conditions: Homo sapiens;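 note: growth inhibition of A4-Fuk cells, read out by a cell viability assay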
Description: SANGER: Inhibition of human A4-Fuk cell growth in a cell viability assay.

[41] = tested on: MOLT-16; assay: cells; type: functional, cell-based; conditions: Homo sapiens;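 note: growth inhibition of human MOLT-16 cells, read out with a cell viability assay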
Description: SANGER: Inhibition of human MOLT-16 cell growth in a cell viability assay.

[42] = tested on: COLO-320-HSR; assay: cells; type: functional, cell-based; conditions: Homo sapiens;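 note: growth inhibition of COLO-320-HSR cells, determined with a cell viability assay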
Description: SANGER: Inhibition of human COLO-320-HSR cell growth in a cell viability assay.

[43] = tested on: NCI-H1651; assay: cells; type: functional, cell-based; conditions: Homo sapiens;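 note: Read-out is a cell viability assay, with IC50 expressing inhibition of NCI-H1651 cell growth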
Description: SANGER: Inhibition of human NCI-H1651 cell growth in a cell viability assay.

[44] = tested on: NCI-H1299; assay: cells; type: functional, cell-based; conditions: Homo sapiens;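 note: growth inhibition of human NCI-H1299 cells, read out by a cell viability assay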
Description: SANGER: Inhibition of human NCI-H1299 cell growth in a cell viability assay.

[45] = tested on: NCI-H1581; assay: cells; type: functional, cell-based; conditions: Homo sapiens;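 note: cell growth inhibition read out by a viability assay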
Description: SANGER: Inhibition of human NCI-H1581 cell growth in a cell viability assay.

[46] = tested on: MKN-45; assay: cells; type: functional, cell-based; conditions: Homo sapiens;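 note: growth inhibition of human MKN-45 cells, measured with a cell viability assay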
Description: SANGER: Inhibition of human MKN45 cell growth in a cell viability assay.

[47] = tested on: HH; assay: cells; type: functional, cell-based; conditions: Homo sapiens
Description: SANGER: Inhibition of human HH cell growth in a cell viability assay.

[48] = tested on: L-363; assay: cells; type: functional, cell-based; conditions: Homo sapiens
Description: SANGER: Inhibition of human L-363 cell growth in a cell viability assay.

[49] = tested on: ALL-PO; assay: cells; type: functional, cell-based; conditions: Homo sapiens;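 note: growth inhibition of ALL-PO cells, read out by a cell viability assay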
Description: SANGER: Inhibition of human ALL-PO cell growth in a cell viability assay.

[50] = tested on: DJM-1; assay: cells; type: functional, cell-based; conditions: Homo sapiens;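 note: growth inhibition of human DJM-1 cells, read out by a cell viability assay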
Description: SANGER: Inhibition of human DJM-1 cell growth in a cell viability assay.

[51] = tested on: GB-1; assay: cells; type: functional, cell-based; conditions: Homo sapiens;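 note: growth of GB-1 cells judged by a viability assay, IC50 marks the concentration inhibiting growth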
Description: SANGER: Inhibition of human GB-1 cell growth in a cell viability assay.

[52] = tested on: MEG-01; assay: cells; type: functional, cell-based; conditions: Homo sapiens;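 note: growth inhibition of MEG-01 cells, read out by a cell viability assay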
Description: SANGER: Inhibition of human MEG-01 cell growth in a cell viability assay.

[53] = tested on: COLO-829; assay: cells; type: functional, cell-based; conditions: Homo sapiens
Description: SANGER: Inhibition of human COLO-829 cell growth in a cell viability assay.

[54] = tested on: ES4; assay: cells; type: functional, cell-based; conditions: Homo sapiens;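 note: growth inhibition of human ES4 cells, read out by a cell viability assay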
Description: SANGER: Inhibition of human ES4 cell growth in a cell viability assay.

[55] = tested on: RS4-11; assay: cells; type: functional, cell-based; conditions: Homo sapiens;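 note: growth inhibition of RS4-11 cells, read out by a cell viability assay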
Description: SANGER: Inhibition of human RS4-11 cell growth in a cell viability assay.

[56] = tested on: TGBC24TKB; assay: cells; type: functional, cell-based; conditions: Homo sapiens;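 note: growth inhibition of human TGBC24TKB cells, read out with a cell viability assay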
Description: SANGER: Inhibition of human TGBC24TKB cell growth in a cell viability assay.

[57] = tested on: BB49-HNC; assay: cells; type: functional, cell-based; conditions: Homo sapiens;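 note: cell viability assay read-out, reported as inhibition of BB49-HNC cell growth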
Description: SANGER: Inhibition of human BB49-HNC cell growth in a cell viability assay.

[58] = tested on: MIA PaCa-2; assay: cells; type: functional, cell-based; conditions: Homo sapiens;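 note: growth inhibition of MIA PaCa-2 cells, read out with a cell viability assay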
Description: SANGER: Inhibition of human MIA-PaCa-2 cell growth in a cell viability assay.

[59] = tested on: HL-60; assay: cells; type: functional, cell-based; conditions: Homo sapiens;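 note: growth inhibition of human HL-60 cells, read out with a cell viability assay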
Description: SANGER: Inhibition of human HL-60 cell growth in a cell viability assay.

[60] = tested on: JAR; assay: cells; type: functional, cell-based; conditions: Homo sapiens;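 note: growth inhibition of human JAR cells determined with a cell viability assay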
Description: SANGER: Inhibition of human JAR cell growth in a cell viability assay.

[61] = tested on: GI-ME-N; assay: cells; type: functional, cell-based; conditions: Homo sapiens
Description: SANGER: Inhibition of human GI-ME-N cell growth in a cell viability assay.

[62] = tested on: NCI-H526; assay: cells; type: functional, cell-based; conditions: Homo sapiens
Description: SANGER: Inhibition of human NCI-H526 cell growth in a cell viability assay.

[63] = tested on: BV-173; assay: cells; type: functional, cell-based; conditions: Homo sapiens
Description: SANGER: Inhibition of human BV-173 cell growth in a cell viability assay.

[64] = tested on: P30-OHK; assay: cells; type: functional, cell-based; conditions: Homo sapiens
Description: SANGER: Inhibition of human P30-OHK cell growth in a cell viability assay.

[65] = tested on: NB13; assay: cells; type: functional, cell-based; conditions: Homo sapiens
Description: SANGER: Inhibition of human NB13 cell growth in a cell viability assay.

In the case of `O=c1[nH]c2ccccc2n1C1CCN(Cc2ccc(-c3nc4cc5[nH]cnc5cc4nc3-c3ccccc3)cc2)CC1`, the pIC50 [1] was under 5.59, the pIC50 [2] was under 5.59 and the pIC50 [3] was under 5.59. The pIC50 [4] was under 5.59, the pIC50 [5] was under 5.59 and the pIC50 [6] was under 5.59. The pIC50 [7] was under 5.59, the pIC50 [8] was under 5.59 and the pIC50 [9] was under 5.59. It also gave a pIC50 [10] of under 5.59, a pIC50 [11] of under 5.59 and a pIC50 [12] of under 5.59. The pIC50 [13] was under 5.59, the pIC50 [14] was under 5.59 and the pIC50 [15] was under 5.59. It also gave a pIC50 [16] of under 5.59, a pIC50 [17] of under 5.59 and a pIC50 [18] of under 5.59. The pIC50 [19] was under 5.59, the pIC50 [20] was under 5.59 and the pIC50 [21] was under 5.59. For the same compound, the pIC50 [22] was under 5.59, the pIC50 [23] was under 5.59 and the pIC50 [24] was under 5.59. The pIC50 [25] was under 5.59, the pIC50 [26] was 5.90 and the pIC50 [27] was under 5.59. For the same compound, the pIC50 [28] was under 5.59, the pIC50 [29] was under 5.59 and the pIC50 [30] was under 5.59. The pIC50 [31] was under 5.59, the pIC50 [32] was under 5.59 and the pIC50 [33] was under 5.59. For the same compound, the pIC50 [34] was under 5.59, the pIC50 [35] was under 5.59 and the pIC50 [36] was under 5.59. It also gave a pIC50 [37] of 6.14, a pIC50 [38] of under 5.59 and a pIC50 [39] of under 5.59. The pIC50 [40] was 5.73, the pIC50 [41] was under 5.59 and the pIC50 [42] was under 5.59. For the same compound, the pIC50 [43] was under 5.59, the pIC50 [44] was under 5.59 and the pIC50 [45] was under 5.59. The pIC50 [46] was under 5.59, the pIC50 [47] was under 5.59 and the pIC50 [48] was under 5.59. For the same compound, the pIC50 [49] was under 5.59, the pIC50 [50] was under 5.59 and the pIC50 [51] was under 5.59. For the same compound, the pIC50 [52] was under 5.59, the pIC50 [53] was under 5.59 and the pIC50 [54] was under 5.59. The pIC50 [55] was under 5.59, the pIC50 [56] was under 5.59 and the pIC50 [57] was under 5.59. For the same compound, the pIC50 [58] was under 5.59, the pIC50 [59] was under 5.59 and the pIC50 [60] was under 5.59. It also gave a pIC50 [61] of under 5.59, a pIC50 [62] of under 5.59 and a pIC50 [63] of under 5.59. The pIC50 [64] was under 5.59 and the pIC50 [65] was under 5.59.

With `CC(O)(CS(=O)(=O)c1ccc(F)cc1)C(=O)Nc1ccc(C#N)c(C(F)(F)F)c1` (stereo not given) [BICALUTAMIDE] the pIC50 [1] was under 5.99, the pIC50 [2] was under 5.99 and the pIC50 [3] was under 5.99. It also gave a pIC50 [4] of under 5.99, a pIC50 [5] of under 5.99 and a pIC50 [6] of under 5.99. For the same compound, the pIC50 [7] was under 5.99, the pIC50 [8] was under 5.99 and the pIC50 [9] was under 5.99. It also gave a pIC50 [10] of under 5.99, a pIC50 [11] of under 5.99 and a pIC50 [12] of under 5.99. The pIC50 [13] was under 5.99, the pIC50 [14] was under 5.99 and the pIC50 [15] was under 5.99. For the same compound, the pIC50 [16] was under 5.99, the pIC50 [17] was under 5.99 and the pIC50 [18] was under 5.99. The pIC50 [19] was under 5.99, the pIC50 [20] was under 5.99 and the pIC50 [21] was under 5.99. It also gave a pIC50 [22] of under 5.99, a pIC50 [23] of under 5.99 and a pIC50 [24] of under 5.99. For the same compound, the pIC50 [25] was under 5.99, the pIC50 [26] was under 5.99 and the pIC50 [27] was under 5.99. It also gave a pIC50 [28] of under 5.99, a pIC50 [29] of under 5.99 and a pIC50 [30] of under 5.99. It also gave a pIC50 [31] of under 5.99, a pIC50 [32] of under 5.99 and a pIC50 [33] of under 5.99. It also gave a pIC50 [34] of under 5.99, a pIC50 [35] of under 5.99 and a pIC50 [36] of under 5.99. For the same compound, the pIC50 [37] was under 5.99, the pIC50 [38] was under 5.99 and the pIC50 [39] was under 5.99. The pIC50 [40] was under 5.99, the pIC50 [41] was under 5.99 and the pIC50 [42] was under 5.99. The pIC50 [43] was under 5.99, the pIC50 [44] was under 5.99 and the pIC50 [45] was under 5.99. For the same compound, the pIC50 [46] was under 5.99, the pIC50 [47] was under 5.99 and the pIC50 [48] was under 5.99. The pIC50 [49] was under 5.99, the pIC50 [50] was under 5.99 and the pIC50 [51] was under 5.99. The pIC50 [52] was under 5.99, the pIC50 [53] was under 5.99 and the pIC50 [54] was under 5.99. The pIC50 [55] was under 5.99, the pIC50 [56] was under 5.99 and the pIC50 [57] was under 5.99. It also gave a pIC50 [58] of under 5.99, a pIC50 [59] of under 5.99 and a pIC50 [60] of under 5.99. For the same compound, the pIC50 [61] was under 5.99, the pIC50 [62] was under 5.99 and the pIC50 [63] was under 5.99. It also gave a pIC50 [64] of under 5.99 and a pIC50 [65] of under 5.99.
